Measured values as given in paper PMC3907537, “Evaluation of the Endothelin Receptor Antagonists Ambrisentan, Bosentan, Macitentan, and Sitaxsentan as Hepatobiliary Transporter Inhibitors and Substrates in Sandwich-Cultured Human Hepatocytes” (PLoS ONE, 2014).
Several values for one entry are separate records, joined by “and”; a condition that tells them apart may be missing. Equal values may be shown once.

What was measured:
[1] = target: T1, BSEP (Homo sapiens, UniProt O95342); assay: BSEP inhibition, taurocholate transport in Sf9 membrane vesicles; type: biochemical; settings: taurocholate 2 µM, mean ± SD of 3 independent studies in duplicate, tested 0.14–100 µM
T1 construct: purchased Solvo Biotechnology, Budaors, Hungary; host or cells: Sf9 insect cells (membrane vesicles)
T1 sequence (O95342 whole entry): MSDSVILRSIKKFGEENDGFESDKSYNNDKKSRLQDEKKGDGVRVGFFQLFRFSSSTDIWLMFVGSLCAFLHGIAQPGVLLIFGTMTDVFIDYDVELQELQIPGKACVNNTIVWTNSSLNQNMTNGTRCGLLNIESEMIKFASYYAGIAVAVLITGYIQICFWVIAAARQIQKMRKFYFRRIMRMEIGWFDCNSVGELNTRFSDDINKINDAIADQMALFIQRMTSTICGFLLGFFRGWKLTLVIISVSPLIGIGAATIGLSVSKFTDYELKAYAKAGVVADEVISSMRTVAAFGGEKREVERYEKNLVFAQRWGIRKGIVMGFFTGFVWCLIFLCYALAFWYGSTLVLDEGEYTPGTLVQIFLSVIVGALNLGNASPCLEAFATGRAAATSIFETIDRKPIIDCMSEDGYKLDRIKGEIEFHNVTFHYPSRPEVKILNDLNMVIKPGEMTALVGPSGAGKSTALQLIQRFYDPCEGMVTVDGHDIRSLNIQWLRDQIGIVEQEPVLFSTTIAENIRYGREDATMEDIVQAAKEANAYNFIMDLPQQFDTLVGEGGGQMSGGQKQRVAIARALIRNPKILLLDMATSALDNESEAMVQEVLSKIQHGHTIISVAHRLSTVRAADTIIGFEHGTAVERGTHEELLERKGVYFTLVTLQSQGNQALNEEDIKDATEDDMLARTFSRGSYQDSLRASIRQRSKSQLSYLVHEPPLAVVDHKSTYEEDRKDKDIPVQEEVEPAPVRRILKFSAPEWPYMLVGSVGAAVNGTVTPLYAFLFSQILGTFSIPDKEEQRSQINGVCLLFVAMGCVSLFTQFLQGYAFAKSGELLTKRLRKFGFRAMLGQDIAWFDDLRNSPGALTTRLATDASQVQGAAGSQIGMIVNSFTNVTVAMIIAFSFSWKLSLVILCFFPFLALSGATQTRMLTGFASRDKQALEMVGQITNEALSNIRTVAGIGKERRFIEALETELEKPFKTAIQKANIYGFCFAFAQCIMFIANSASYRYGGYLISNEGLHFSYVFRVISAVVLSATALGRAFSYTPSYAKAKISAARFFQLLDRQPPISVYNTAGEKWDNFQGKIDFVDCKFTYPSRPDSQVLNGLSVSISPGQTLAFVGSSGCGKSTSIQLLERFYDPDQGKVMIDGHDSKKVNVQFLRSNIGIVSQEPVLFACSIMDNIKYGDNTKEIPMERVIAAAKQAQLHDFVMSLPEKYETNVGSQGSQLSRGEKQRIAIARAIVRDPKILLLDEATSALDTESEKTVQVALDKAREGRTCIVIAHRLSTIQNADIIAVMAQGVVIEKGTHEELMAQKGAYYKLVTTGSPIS
Description: Chinese Hamster Ovary (CHO) cells were obtained from Professor B. Stieger’s laboratory at University of Zurich, Zurich, Switzerland. Madin-Darby Canine Kidney strain II (MDCKII) cells were obtained from Nederlands Kanker Instituut (NKI), Amsterdam, Netherlands. NTCP-CHO cells, BSEP and MRP2 membrane vesicles were developed and validated at Solvo Biotechnology, Budaors, Hungary.
BSEP and MRP2 inhibition was studied in membrane vesicles isolated from sf9 insect cells overexpressing the respective transporters. Vesicular transport inhibition assays used test compounds incubated with membrane vesicle preparations (total protein: 50 µg/well) and probe substrates, taurocholate (2 µM) for BSEP or Estradiol-17-beta-glucuronide (0.2 µM) for MRP2, in the absence or presence of ATP. Reaction mixtures were preincubated for 15 min at 37°C. Reactions were started by the addition of 25 µL of 12 mM MgATP or assay buffer (for background controls), preincubated separately. Reactions were stopped after 5 min by the addition of 200 µL of ice-cold washing buffer and immediate filtration via glass fiber filters mounted to a 96-well plate (filter plate). The filters were washed, dried and the amount of substrate inside the filtered vesicles determined by liquid scintillation. Cyclosporin A (20 µM) or benzbromarone (100 µM), for BSEP or MRP2, respectively, were used as positive control inhibitors. Control membranes lacking transporter expression were used as negative control.
All assays were performed in duplicate. IC50 was defined as the test article concentration needed to inhibit the maximal transporter specific accumulation by 50%. IC50 values were calculated using non-linear fitting of % inhibition versus concentration to a sigmoidal curve with a variable Hill Coefficient using GraphPad Prism 5 (GraphPad Software Inc., San Diego, CA).

[2] = test system: sandwich-cultured human hepatocytes; assay: Effect of ERAs on endogenous glycochenodeoxycholic acid (GCDCA) distribution in sandwich-cultured human hepatocytes; type: cell-based; settings: 24 h, mean ± standard error, n=3 human livers
Procedure: Sandwich-cultured human hepatocytes were obtained from Celsis/IVT (Baltimore, MD) or Life Technologies (Durham, NC). […] Hepatic uptake, biliary excretion and in vitro biliary clearance (Clb) were determined using the B-CLEAR® hepatocyte sandwich culture model as described by Liu et al., 1999 [34]. In this system, hepatocytes form functional bile canalicular networks while maintaining the expression and function of key uptake and efflux transporters. The canalicular system of bile pockets remains separate from the cellular culture media due to tight junctions between cells. The integrity of these tight junctions is maintained in the presence of calcium (Plus (+) buffer) while in the absence of calcium (Minus (−) buffer), these tight junctions open and release the contents of the canalicular network into the media.
Incubation solutions containing ERA (1, 10 and 100 µM) were prepared in cell culture medium. On the sixth day of culturing of the sandwich-cultured hepatocytes, cell culture medium was removed from the wells and incubation solutions containing the test ERAs were added to the cells. The cells were incubated with ERA solution for 24 h at 37°C. After the exposure, the incubation solutions were removed and the cells were rinsed with Plus (+) or Minus (−) buffer. The buffer solutions were then removed and the cells were incubated with fresh Plus (+) or Minus (−) buffer for 5 min at 37°C. Following this 5 minute incubation, the buffer solutions were collected and any remaining buffers were removed. The cells were then washed three times with ice-cold Plus (+) buffer and the plates were frozen at −80°C until processed for bioanalysis.
Study samples were stored in their original 24-well plates at −80°C until prepared for analysis. A volume of 500 µL of cell lysis solution (70∶30 methanol:water) containing 25 nM internal standard was added to each well and mixed for 20 min of mixing. The volume in each well was then transferred to a 96-well filter plate stacked on a Greiner deep well collection plate. The filter plate/collection plate was then centrifuged at 2000 rcf for 5 min. The filtrate was then evaporated to dryness under nitrogen. Samples were reconstituted in 200 µL of sample diluent (60∶40 methanol:10 mM ammonium acetate, native pH), sealed, and placed on a plate shaker for 15 min. These samples were then transferred to a Whatman 96-well 0.45 µm PVDF filter plate stacked on a Costar 3956 plate (HPLC injection plate), centrifuged at 2000 rcf for 2–3 min, and sealed with a silicon cap mat prior to LC-MS/MS analysis. d8-TCA standard spiking solutions were prepared in 50∶50 methanol:water. For a given lysate standard or control, 10 µL was added to each well of a previously frozen analytical plate. Standards representing 0.5–100 pmoles/well and QC’s at the LLQ and ULQ were prepared. These lysate standards and controls were then further processed as described above for unknown study samples. Prepared samples were filtered and analyzed by LC-MS/MS using a Shimadzu binary HPLC system (Columbia, MD) and tandem mass spectrometry using Thermo Electron TSQ® Quantum Discovery MAX™ (Waltham, MA) with an Ion Max ESI source operating in negative ion electrospray ionization mode. Results for unknowns and QCs were calculated using a standard curve based on an internal standard processing method.
Statistical comparisons across ERA treatments were performed using analysis of variance (ANOVA) with Fisher’s PLSD post hoc analysis (Statview 5.0, SAS Institute, Cary NC); statistical significance was considered to be P<0.05. All mass values were normalized to mg protein by taking the average protein mass in the taurocholate plate determined using a BCA protein assay (Pierce Biotechnology, Rockford, IL). Cellular accumulation determined in Minus (−) buffer (Accumulation Minus (−) Buffer) represents the total mass of analyte inside the hepatocyte at the end of the incubation time period. […]

Row | SMILES | IC50 [1] | GCDCA BEI (% Control) ([2]; 1 µM) | GCDCA Cellular Accumulation (% Control) ([2]; 1 µM) | GCDCA Medium Concentration (% Control) ([2]; 1 µM) | GCDCA Total Accumulation (% Control) ([2]; 1 µM) | GCDCA BEI (% Control) ([2]; 10 µM) | GCDCA Cellular Accumulation (% Control) ([2]; 10 µM) | GCDCA Medium Concentration (% Control) ([2]; 10 µM) | GCDCA Total Accumulation (% Control) ([2]; 10 µM) | GCDCA BEI (% Control) ([2]; 100 µM) | GCDCA Cellular Accumulation (% Control) ([2]; 100 µM) | GCDCA Medium Concentration (% Control) ([2]; 100 µM) | GCDCA Total Accumulation (% Control) ([2]; 100 µM)
1 | COC(c1ccccc1)(c1ccccc1)[C@H](Oc1nc(C)cc(C)n1)C(=O)O [ambrisentan] | > 100 µM | 95.1 ± 16.3 % Control | 104.0 ± 3.0 % Control | 110.0 ± 7.6 % Control | 103.0 ± 8.1 % Control | 81.3 ± 11.0 % Control | 83.6 ± 11.6 % Control | 109.0 ± 16.0 % Control | 75.7 ± 8.0 % Control | 76.0 ± 38.1 % Control | 27.6 ± 3.4 % Control | 103.0 ± 2.3 % Control | 26.3 ± 5.7 % Control
2 | COc1ccccc1Oc1c(NS(=O)(=O)c2ccc(C(C)(C)C)cc2)nc(-c2ncccn2)nc1OCCO [bosentan] | 42 µM and 42.1 µM | 94.5 ± 12.4 % Control | 88.0 ± 5.9 % Control | 114.0 ± 9.9 % Control | 86.8 ± 3.5 % Control | 65.7 ± 21.7 % Control | 54.8 ± 4.4 % Control | 109.0 ± 14.7 % Control | 47.2 ± 2.3 % Control | 56.8 ± 11.9 % Control | 30.3 ± 6.7 % Control | 126.0 ± 7.9 % Control | 25.4 ± 6.0 % Control
3 | CCCNS(=O)(=O)Nc1ncnc(OCCOc2ncc(Br)cn2)c1-c1ccc(Br)cc1 [macitentan] | 12 µM and 11.9 µM | 98.7 ± 14.8 % Control | 88.7 ± 0.8 % Control | 111.0 ± 9.0 % Control | 90.0 ± 4.0 % Control | 89.4 ± 14.2 % Control | 52.1 ± 2.6 % Control | 98.7 ± 10.1 % Control | 48.9 ± 0.9 % Control | 37.5 ± 21.9 % Control | 11.4 ± 3.2 % Control | 51.8 ± 7.1 % Control | 8.38 ± 1.4 % Control
4 | Cc1cc2c(cc1CC(=O)c1sccc1S(=O)(=O)Nc1onc(C)c1Cl)OCO2 [sitaxsentan] | – | 112.0 ± 19.8 % Control | 89.8 ± 10.8 % Control | 110.0 ± 9.2 % Control | 99.3 ± 11.0 % Control | 85.7 ± 8.4 % Control | 79.4 ± 12.4 % Control | 105.0 ± 11.9 % Control | 73.8 ± 10.5 % Control | 55.5 ± 34.3 % Control | 14.5 ± 2.7 % Control | 76.5 ± 8.3 % Control | 12.4 ± 3.0 % Control
